According to ChEMBL document CHEMBL4616701, “Design, Synthesis, and Pharmacological Evaluation of Second Generation EZH2 Inhibitors with Long Residence Time” (ACS Med Chem Lett, 2020):
The source made the active and inactive calls. The calls are words filed in the database; no cut-off is given here.

Legend:
[1] = biological target: T1, Histone-lysine N-methyltransferase EZH2 (Homo sapiens, UniProt Q15910); experiment: Inhibition of N-terminal FLAG-tagged EZH2 in PRC2 complex (unknown origin) expressed in baculovirus infected Sf9 cells using H2N-RKQLATKAAR(Kme0)SAPATGGVKKP-NTPEGBiot peptide as substrate preincubated with [3H]SAM for 4 to 5 hrs followed by substrate addition and measured after 20 hrs by Topcount reader analysis
Target sequence in this assay (Q15910 whole entry): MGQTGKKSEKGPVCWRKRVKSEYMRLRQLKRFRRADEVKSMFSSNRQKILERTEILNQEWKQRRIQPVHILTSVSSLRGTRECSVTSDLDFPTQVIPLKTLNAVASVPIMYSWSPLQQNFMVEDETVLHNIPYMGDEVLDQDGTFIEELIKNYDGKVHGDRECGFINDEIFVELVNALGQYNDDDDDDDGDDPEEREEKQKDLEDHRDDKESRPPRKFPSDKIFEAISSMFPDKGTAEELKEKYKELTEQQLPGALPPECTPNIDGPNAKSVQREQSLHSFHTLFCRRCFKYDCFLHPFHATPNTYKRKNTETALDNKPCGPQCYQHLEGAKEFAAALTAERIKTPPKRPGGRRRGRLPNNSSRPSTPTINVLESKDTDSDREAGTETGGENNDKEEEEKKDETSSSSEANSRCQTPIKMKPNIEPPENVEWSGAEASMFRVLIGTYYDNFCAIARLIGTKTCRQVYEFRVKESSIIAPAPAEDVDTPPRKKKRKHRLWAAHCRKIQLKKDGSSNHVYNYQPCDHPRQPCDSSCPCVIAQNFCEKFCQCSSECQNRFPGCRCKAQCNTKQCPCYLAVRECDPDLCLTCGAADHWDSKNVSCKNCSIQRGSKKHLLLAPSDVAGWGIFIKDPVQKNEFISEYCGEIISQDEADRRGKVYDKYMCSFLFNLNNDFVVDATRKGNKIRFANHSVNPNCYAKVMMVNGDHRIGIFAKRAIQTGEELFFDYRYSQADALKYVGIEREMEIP

[2] = biological target: T1, Histone-lysine N-methyltransferase EZH2; experiment: Inhibition of EZH2 in human HeLa cells assessed as inhibition of trimethylation of H3K27 after 72 hrs by AlphaLISA assay; assay type: cell-based
Target sequence in this assay (Q15910 whole entry): as above

CYP3A4 = experiment: Upregulation of CYP3A4 mRNA expression in human Fa2N-4 cells at 10 uM after 3 days relative to control; assay type: ADME, cell-based; settings: read-out: FC
[3] = biological target: T1, Histone-lysine N-methyltransferase EZH2; experiment: Binding affinity to N-terminal FLAG-tagged EZH2 in PRC2 complex (unknown origin) expressed in baculovirus infected Sf9 cells assessed as residence time at 21 nM pre-equilibrated with enzyme followed by incubation with bio-EZH2i and measured after 3 to 6 mins by TR-FRET assay
Target sequence in this assay (Q15910 whole entry, looked up): as the sequence (Q15910 whole entry) above

KARPAS-422 [4] = experiment: Antiproliferative activity against human KARPAS422 cells assessed as growth inhibition after 8 days by Cell Titer-Glo luminescent assay; assay type: functional; settings: KARPAS-422, 192 h
[5] = Toxicity in CB-17 SCID mouse xenografted with human KARPAS422 cells assessed as body weight loss at 50 mg/kg, sc bid for 16 days; assay type: organism-based, KARPAS-422; settings: in vivo, 384 h
CWR22R = experiment: Antitumor activity against human 22Rv1 cells xenografted in CB-17 SCID mouse assessed as tumor growth inhibition at 50 mg/kg, sc bid and measured three times per week by caliper method relative to control; assay type: functional; settings: 22Rv1, sc, read-out: TGI
KARPAS-422 [6] = experiment: Antitumor activity against human KARPAS422 cells xenografted in CB-17 SCID mouse assessed as tumor regression at 50 mg/kg, sc bid for 16 days and measured at day 9 by caliper method; assay type: functional, organism-based
KARPAS-422 [7] = experiment: Antitumor activity against human KARPAS422 cells xenografted in CB-17 SCID mouse assessed as tumor regression at 160 mg/kg, po bid for 23 days and measured three times per week by caliper method; assay type: functional, organism-based
[8] = Clearance in iv dosed mouse; assay type: ADME, organism-based; settings: in vivo
[9] = Oral bioavailability in mouse; assay type: ADME, organism-based; settings: in vivo
[10] = Protein binding in mouse plasma; assay type: ADME, cell-free; settings: read-out: PPB (converted)
[11] = Protein binding in human plasma; assay type: ADME, cell-free; settings: read-out: PPB (converted)
KARPAS-422 [12] = experiment: Antitumor activity against human KARPAS422 cells xenografted in CB-17 SCID mouse assessed as tumor growth inhibition at 50 mg/kg, sc bid for 16 days and measured three times per week by caliper method relative to control; assay type: functional; settings: KARPAS-422, sc, 384 h, read-out: TGI
KARPAS-422 [13] = experiment: Antitumor activity against human KARPAS422 cells xenografted in CB-17 SCID mouse assessed as tumor regression at 50 mg/kg, sc bid for 16 days and measured at day 7 by caliper method; assay type: functional, organism-based

## CSc1cc(C)[nH]c(=O)c1CNC(=O)c1c(C)n([C@H](C)[C@H]2OC[C@H](N(C)C)CO2)c2ccccc12
[1]
  IC50: 0.16 nM
[2]
  EC50: 2.4 nM
CYP3A4
  fold induction at 72 h, 10 µM: 3
[3]
  TIME: 40.9 h

## COc1cc(C)[nH]c(=O)c1CNC(=O)c1c(C)n([C@H](C)C2CCN(CC(F)(F)F)CC2)c2ccccc12 [CPI-1205]
KARPAS-422 [4]
  GI50: 436 nM
[3]
  TIME: 4.5 h

## Cc1cc(C)c(CNC(=O)c2c(C)n([C@H](C)C3CCN(CC(F)(F)F)CC3)c3ccccc23)c(=O)[nH]1
[1]
  IC50: 0.2 to 30 nM

## CSc1cc(C)[nH]c(=O)c1CNC(=O)c1c(C)n([C@H](C)C2CCN(CC(C)(C)O)CC2)c2ccccc12
[1]
  IC50: 0.067 nM
[2]
  EC50: 26 nM
[3]
  TIME: 7.52 h

## Cc1cc(SCc2ccccc2)c(CNC(=O)c2c(C)n([C@H](C)C3CCN(CC(F)(F)F)CC3)c3ccccc23)c(=O)[nH]1
[1]
  IC50: 3.8 nM

## CSc1cc(C)[nH]c(=O)c1CNC(=O)c1c(C)n([C@H](C)[C@H]2CC[C@H](N3CC(OC4CC4)C3)CC2)c2c(F)cccc12
[1]
  IC50: 0.063 nM
[2]
  EC50: 3.4 nM
KARPAS-422 [4]
  GI50: 32 nM
[3]
  TIME: 100 h

## CSc1cc(C)[nH]c(=O)c1CNC(=O)c1c(C)n([C@H](C)C2CCN(C3COC3)CC2)c2ccccc12
[1]
  IC50: 0.12 nM
[2]
  EC50: 5.1 nM
CYP3A4
  fold induction at 72 h, 10 µM: 6.4
[3]
  TIME: 42.5 h

## Cc1cc(Cl)c(CNC(=O)c2c(C)n([C@H](C)C3CCN(CC(F)(F)F)CC3)c3ccccc23)c(=O)[nH]1
[1]
  IC50: 0.2 to 30 nM
[2]
  EC50: < 100 nM

## Cc1cc(Cl)[nH]c(=O)c1CNC(=O)c1c(C)n([C@H](C)C2CCN(CC(F)(F)F)CC2)c2ccccc12
[1]
  IC50: 0.2 to 30 nM
[2]
  EC50: > 1000 nM

## CSc1cc(C)[nH]c(=O)c1CNC(=O)c1c(C)n([C@H](C)[C@H]2CC[C@H](NC3COC3)CC2)c2ccccc12
[1]
  IC50: 0.13 nM
[2]
  EC50: 6.7 nM
CYP3A4
  fold induction at 72 h, 10 µM: 5
[3]
  TIME: 138 h

## CSc1cc(C)[nH]c(=O)c1CNC(=O)c1c(C)n([C@H](C)[C@H]2CC[C@H](N3CC(OC4CC4)C3)CC2)c2ncncc12
[1]
  IC50: 0.1 nM
[2]
  EC50: 6.3 nM
KARPAS-422 [4]
  GI50: 29 nM
[3]
  TIME: 51.9 h

## Cc1cc([S+](C)[O-])c(CNC(=O)c2c(C)n([C@H](C)C3CCN(CC(F)(F)F)CC3)c3ccccc23)c(=O)[nH]1 (some centres not stated)
[1]
  IC50: 19 nM
[2]
  EC50: > 304 nM

## CCSc1cc(C)[nH]c(=O)c1CNC(=O)c1c(C)n([C@H](C)C2CCN(CC(F)(F)F)CC2)c2ccccc12
[1]
  IC50: 0.73 nM
[2]
  EC50: 45.3 nM

## CSc1cc(C)[nH]c(=O)c1CNC(=O)c1c(C)n([C@H](C)[C@H]2CC[C@H](N3CC(OC(F)F)C3)CC2)c2ccccc12
[1]
  IC50: 0.1 nM
[2]
  EC50: 0.7 nM
KARPAS-422 [4]
  GI50: 12 nM
CYP3A4
  fold induction at 72 h, 10 µM: 32
[3]
  TIME: 211 h

## COC1CN([C@H]2CC[C@H]([C@@H](C)n3c(C)c(C(=O)NCc4c(SC)cc(C)[nH]c4=O)c4ccccc43)CC2)C1
[1]
  IC50: 0.059 nM
[2]
  EC50: 2 nM
KARPAS-422 [4]
  GI50: 33 nM
CYP3A4
  fold induction at 72 h, 10 µM: 2
[3]
  TIME: 141 h
[5]
  Activity: Non-Toxic
CWR22R
  inhibition in vivo at 50 mg/kg: 55%
KARPAS-422 [6]
  Activity: Active

## CSc1cc(C)[nH]c(=O)c1CNC(=O)c1c(C)n([C@H](C)[C@H]2CC[C@H](N3CC(OC4CC4)C3)CC2)c2ccccc12
[1]
  IC50: 0.072 nM
[2]
  EC50: 3.5 nM
KARPAS-422 [4]
  GI50: 13 nM
CYP3A4
  fold induction at 72 h, 10 µM: 17
[3]
  TIME: 289 h

## CSc1cc(C)[nH]c(=O)c1CNC(=O)c1c(C)n([C@H](C)[C@H]2CC[C@H](N3CC(OC4CC4)C3)CC2)c2ncc(Cl)cc12
[1]
  IC50: 0.092 nM
[2]
  EC50: 3.5 nM
KARPAS-422 [4]
  GI50: 37 nM
CYP3A4
  fold induction at 72 h, 10 µM: 1.6
[3]
  TIME: 64.2 h

## CSc1cc(C)[nH]c(=O)c1CNC(=O)c1c(C)n([C@H](C)[C@H]2CC[C@@H](N3CC(F)(F)C3)CC2)c2ccccc12
[1]
  IC50: 0.18 nM
[2]
  EC50: 5.9 nM
CYP3A4
  fold induction at 72 h, 10 µM: 45
[3]
  TIME: 29.1 h

## Cc1cc(SC2CCC2)c(CNC(=O)c2c(C)n([C@H](C)C3CCN(CC(F)(F)F)CC3)c3ccccc23)c(=O)[nH]1
[1]
  IC50: 0.49 nM
[2]
  EC50: 48.5 nM

## Cc1cc(S(C)(=O)=O)c(CNC(=O)c2c(C)n([C@H](C)C3CCN(CC(F)(F)F)CC3)c3ccccc23)c(=O)[nH]1
[1]
  IC50: 4.1 nM
[2]
  EC50: > 304 nM

## COc1cc(C)c(CNC(=O)c2c(C)n([C@H](C)C3CCN(CC(F)(F)F)CC3)c3ccccc23)c(=O)[nH]1
[1]
  IC50: 0.2 to 30 nM
[2]
  EC50: > 1000 nM

## CCN(c1cc(-c2ccc(CN3CCOCC3)cc2)cc(C(=O)NCc2c(C)cc(C)[nH]c2=O)c1C)C1CCOCC1
KARPAS-422 [7]
  Activity: Active

## CSc1cc(C)[nH]c(=O)c1CNC(=O)c1c(C)n([C@H](C)[C@H]2CC[C@H](N3CC(OC4CC4)C3)CC2)c2ncc(F)cc12
[1]
  IC50: 0.06 nM
[2]
  EC50: 1.8 nM
KARPAS-422 [4]
  GI50: 24 nM
CYP3A4
  fold induction at 72 h, 10 µM: 12
[3]
  TIME: 65.8 h

## CSc1cc(C)[nH]c(=O)c1CNC(=O)c1c(C)n([C@H](C)C2CCN(CC(F)(F)F)CC2)c2ccccc12
[1]
  IC50: 0.18 nM
[2]
  EC50: 2.5 nM
KARPAS-422 [4]
  GI50: 53 nM
CYP3A4
  fold induction at 72 h, 10 µM: 25
[3]
  TIME: 46.3 h
[5]
  Activity: Non-Toxic
[8]
  clearance: 9.33 mL/min/kg
[9]
  bioavailability: 40%
[10]
  fraction unbound: 0.002
[11]
  fraction unbound: 0.03
KARPAS-422 [12]
  inhibition in vivo at 50 mg/kg: 77 to 88%
KARPAS-422 [13]
  Activity: Active

## CSc1cc(C)[nH]c(=O)c1CNC(=O)c1c(C)n([C@H](C)[C@H]2CC[C@H](N3CC(OC(F)(F)F)C3)CC2)c2ccccc12
[1]
  IC50: 0.14 nM
[2]
  EC50: 1.8 nM
KARPAS-422 [4]
  GI50: 32 nM
CYP3A4
  fold induction at 72 h, 10 µM: 41

## Cc1cc(Sc2ccccc2)c(CNC(=O)c2c(C)n([C@H](C)C3CCN(CC(F)(F)F)CC3)c3ccccc23)c(=O)[nH]1
[1]
  IC50: 0.62 nM
[2]
  EC50: 181 nM
